Test results reported in patent US12600725B2 (Memorial Sloan-Kettering Cancer Center, priority 2013, dated 2026).
Where two headings read alike, the source gives them in different places.

Legend:
97 kinases = test: Kinase screen (Discoverx scanEDGE / KINOMEscan); format: binding; conditions: tested at 10 uM
PANC-1 cells = test: Cell viability assessment (CellTiter-Glo); format: cell-based
[1] = test system: Toll-like receptor 9 (TLR9) trafficking in HEK293 cells transfected with HA-TLR9; test: TLR9-trafficking assay; format: cell-based, human; conditions: 24 h treatment
Description: TLR^9-trafficking assay (Yang, Y. et al. Heat shock protein gp96 is a master chaperone for toll-like receptors and is important in the innate function of macrophages. Immunity 26, 215-26 (2007)). HEK 293T cells were transfected with pUNO-hTLR9-HA (Invivogen) using X-tremgene HP (Roche) according to the manufacturer's instructions. At 24 hrs post-transfection, cells were split onto cell culture chamber slides (Lab-Tek). Cells were then treated for 24 hrs with indicated compound at varying concentrations. After treatment, cells were fixed for 20 min in 4% paraformaldehyde in PBS, permeabilized with 0.1% Triton-X 100 in PBS for 10 min, blocked with 3% BSA in PBS for 30 min, followed by staining for 1 hr with an anti-HA antibody (Abcam, ab9110) or a normal rabbit IgG. Cells were washed with PBS, stained with an anti-rabbit-Cy3 antibody (Invitrogen) and finally mounted in the dark at 4° C. with Prolong Gold Antifade reagent (with DAPI). Cells were visualized under a confocal microscope (Leica Upright Confocal SP5). Fluorescence intensity was quantified using MetaMorph Microscopy Automation and Image Analysis Software (Molecular Devices Inc.) and normalized to the cell number.

[2] = test system: HER2 at the plasma membrane of SKBr3 cells; test: Immunofluorescence of HER2 architecture at the plasma membrane; format: cell-based
Description: We next investigated the biological significance of the unique association of HER^2 with Grp94 at the plasma membrane of SKBr3 cells. Because the Grp94 inhibitors described here target the ATP-binding pocket of Grp94, they affect Grp94 chaperone activity. Therefore we hypothesized that Grp94 may act on HER^2 at the plasma membrane to stabilize the protein and to regulate its function.
Immunofluorescence. Cells were seeded and grown onto culture slides (BD Falcon) for 24 hrs. After washing with cold PBS, cells were fixed by treating at 4° C. for 20 min with 4% paraformaldehyde in PBS, permeabilized with 0.1% Triton X-100 in PBS containing 10% FBS for 10 min, and blocked with 2% BSA for 1 hr. After washing for four times with PBS, primary antibodies were added onto the chambers and cell were incubated overnight at 4° C., washed again with PBS followed by incubation with the secondary antibody for 1 hr at room temperature. Cell were washed and then mounted and observed under microscope (Leica Upright Confocal SP5). The primary antibodies used in the assay are against: HER^2 (Zymed, 28004), Grp94 (Stressgen, SPA-850), Hsp70 (Stressgen, SPA-810), LAMP1-FITC (Abcam, ab25406), EEA1 (Abcam, ab70521), 58K Golgi-FITC (Abcam, ab27043) and Calnexin (BD, 610523).

in vivo = test: in vivo; parameters: species or system mouse
[3] = test system: downstream EGFR signaling in MDA-MB-468 tumors; test: PD analysis of tumors (Western blot); format: in vivo, mouse; conditions: 75 mg/kg ip
Description: For this purpose we used mice bearing MDA-MB-468 tumors (a triple-negative breast tumor with EGFR-overexpression). Because of the specific affinity of the provided Grp94 inhibitors for tumor Grp94, we performed PK/PD studies that are tailored for this purpose. In this PK/PD study we incorporated two time points, a 2 h and a 24 h time of sacrifice post-administration. The early time point is incorporated to test the biodistribution of the agent to the site of its action, the tumor; PU-WS13 was readily distributed to tumor mass with -850 μM noted in tumor at 2 h versus 100 μM in the plasma (FIG. 25A). […] The concentration of PU-WS13 in the tumor at 24 h post-administration of single dose of 75 mg/kg was 0.5 μM. […] We also analyzed the potential suppression by PU-WS13 of normal Grp94 functions. A “housekeeping” function for Grp94 was identified using a conditional knock-out mouse model; that study found a role for Grp94 in normal GI cells, i.e. regulation of the Wnt receptor LRP6 (Liu et al., Proc Natl Acad Sci USA. 2013 Apr. 23; 110(17):6877-82). […]
The other half of tumor tissues were evaluated for changes in EGFR and other PD markers as established in our laboratory. […] After quantifying the protein concentrations by BCA, 25-100ug proteins were loaded into SDS-PAGE and subjected to immunoblotting.

Structure (SMILES): CC(C)NCCCn1c(Sc2cc(Cl)cc(Cl)c2)nc2c(N)ncnc21 [PU-WS13]
- effect on the tested 97 kinases (97 kinases): no significant effect
- effect on cell growth (PANC-1 cells): effectively inhibited the growth
- TLR9 trafficking [1]: inhibits TLR^9 trafficking
- effect on HER2 architecture at the plasma membrane [2]: disruption of the circular architecture of HER^2 at the plasma membrane
- AUC0-24h for stomach relative to tumor AUC0-24h (in vivo; 75 mg/kg ip): 1.4 fold
- AUC0-24h for the large intestine relative to tumor AUC0-24h (in vivo; 75 mg/kg ip): 2 fold
- concentration at 2 h (in vivo; female, nu/nu athymic, mouse, plasma, intraperitoneal, 75 mg/kg ip, read-out: PU-WS13 level in the plasma): 100 µM
- AUC(0-t) (in vivo; female, nu/nu athymic, mouse, plasma, 75 mg/kg ip, read-out: AUC0-24 h plasma): 1260 µM·h
- concentration at 2 h (in vivo; female, nu/nu athymic, mouse, tumor, intraperitoneal, 75 mg/kg ip, read-out: PU-WS13 level in tumor): ~850 µM
- concentration at 24 h (in vivo; female, nu/nu athymic, mouse, tumor, intraperitoneal, single dose of 75 mg/kg, 24 h post-administration): 0.5 µM
- AUC(0-t) (in vivo; female, nu/nu athymic, mouse, tumor, 75 mg/kg ip, read-out: AUC0-24 h tumor): 9130 µM·h
- PD effect in tumor (p-AKT and p-ERK inhibition) [3]: partial suppression of downstream EGFR signaling
